Experimental findings from article PMC7956430, “Cytotoxicity and Apoptosis Effects of Curcumin Analogue (2E,6E)-2,6-Bis(2,3-Dimethoxybenzylidine) Cyclohexanone (DMCH) on Human Colon Cancer Cells HT29 and SW620 In Vitro” (Molecules, 2021) are described below.

Like-named read-outs stand apart in the source and are kept apart here.

Assay [1] concerns HT29. Briefly: Acridine orange/propidium iodide (AO/PI) double staining assay. Type of assay: cell-based, human. Particulars: HT29, DMCH at IC50, as incubation time increased (48 h, 72 h), p < 0.05. On the procedure:
(§1) Acridine orange/propidium iodide (AO/PI) double staining assay was performed on colon cancer cell lines to determine the mode of cell death microscopically. HT29 and SW620 cell lines were seeded in a 6-well plate at a density of 2 × 10^5 cells/well. Then, cells were treated with DMCH sample according to 48 h and 72 h concentrations. The treatment-free culture was used as a negative control, and cells were detached and collected at the end of each incubation time. Then, cells were washed with PBS and incubated with a 1:1 ratio of acridine orange (10 µg/mL) and propidium iodide (10 µg/mL). An amount of 10 µL of incubated suspension cells was placed on a slide and viewed immediately under a fluorescent microscope (Nikon FC-35DX, Nikon, Tokyo, Japan).

The test system of assay [2] is SW620. Described as above. To be noted: SW620, DMCH at IC50, as incubation time increased (48 h, 72 h), p < 0.05. Type of assay: cell-based, human. On the procedure: as §1
For assay [3], the system named is Splenocyctes. Briefly: MTT cell viability assay on normal cells. Type of assay: cell-based. Particulars: splenocytes.
The subject of assay [4] is HT29. Briefly: MTT cell viability assay. Type of assay: cell-based. Particulars: Homo sapiens, HT-29. On the procedure:
(§2) Both SW620 and HT29 cells were grown in an incubator at 37 °C under 5% CO2 condition with their respective media. After the cells were harvested, they were counted and seeded at 1 × 10^5 cells per well in a 96-well plate overnight before being treated with DMCH. The following day, cells were treated with various concentrations of DMCH. […] Following incubation for the designated time period, 20 μL of (5 mg/mL) MTT 3-[4, 5-dimethylthiazol-2-yl]-2, 5 diphenyltetrazolium bromide (Merck, Kenilworth, NJ, USA) reagent was added into each well and then cells were incubated again for another 3 to 4 h. Next, the solution was removed and 100 μL of dimethyl sulfoxide (DMSO) was added into the wells. Afterward, the plate was read at 575 nm using a microtiter plate reader (μQuant, Bio-Tek Instrument, Winooski, VT, USA). The results were analysed as the percentage proliferation of the cells regarding the concentration of the sample treated. The following formula was used to determine the percentage of viable cells:
(§3) Percentage of viability (%) = (Absorbance of sample at 570 nm)/(Absorbance of control at 570 nm) × 100.

In assay [5] the test system is SW620. Briefly: MTT cell viability assay. Type of assay: cell-based. Particulars: Homo sapiens, SW-620. The protocol:
as §2, §3
For orientation: Tetrazolium assays rely on reduction of a dye to a coloured formazan, in cell work by metabolically active cells.

For assay [6], the system named is HT29. Briefly: Cell cycle analysis by flow cytometry. Type of assay: cell-based, human. To be noted: HT29, 72 h. On the procedure:
(§4) The effect of the DMCH sample on the cell cycle of HT29 and SW620 cells was investigated using flow cytometry cell cycle analysis. Cell cycle assay was carried out using the CycleTEST Plus DNA Reagent Kit according to the instructions (BD Pharmingen, San Diego, CA, USA). The cells were seeded at a density of 2.0 × 10^5 cells/well overnight. Then, cells were treated with different dosages of DMCH based on the concentration results of the MTT assay for 48 h and 72 h. After the treatment, cells were collected, and the pellet was resuspended in 200 μL of trypsin (solution A) and RNAse (solution B) for 10 min each followed by 250 μL of propidium iodide (solution C) for 15 min. After that, flow cytometric analysis was performed within 3 h using a Novocytes flow cytometer (ACEA Biosciences Inc., San Diego, CA, USA).
(In flow cytometry, cells or beads pass a laser one at a time.)

Assay [7] relates to SW620. Briefly: Cell cycle analysis by flow cytometry. Type of assay: cell-based, human. On the procedure: as §4
Assay [8] deals with HT29. Briefly: Annexin V/FITC assay (flow cytometry). It counts as cell-based, human. To be noted: HT29, 72 h, DMCH at IC50. On the procedure: (§5) The apoptosis effect on HT29 and SW620 cells was studied using an Annexin V fluorescence kit (BD Pharmingen, San Diego, CA, USA) according to the manufacturer’s instructions without any modifications. Briefly, cells were seeded for 24 h at a density of 2.0 × 10^5 cells per well in a 6-well plate. Then, the seeded cells were treated with the designated concentrations for 48 h and 72 h. After the 48 h (or 72 h) of treatment, the treated cells were harvested and collected as a pellet. Next, the pellet was resuspended in 400 μL of binding buffer and stained with 5 μL of FITC-Annexin-V and 5 μL of PI provided in the kit. Afterward, the cells were analysed using a Novocyctes flow cytometer (ACEA Biosciences Inc., San Diego, CA, USA).

Assay [9] concerns SW620. Briefly: Annexin V/FITC assay (flow cytometry). It counts as cell-based, human. To be noted: SW620, 72 h, DMCH at IC50. The protocol:
as §5

In assay [10] the test system is apoptosis-related proteins in SW620. Briefly: Human apoptosis proteome profiler. It counts as cell-based. To be noted: SW620, DMCH (IC50) for 48 h. The protocol: (§6) Colon cancer cell lines SW620 and HT29 that had been treated with DMCH for 48 h were investigated for the expression profiles of apoptosis-related proteins. This was conducted using the Human Apoptosis Array Kit (R&D Systems, Minneapolis, MN, USA). Firstly, the proteins from both cells were extracted using 600 µL of RIPA buffer (50 mM Tris-HCl, 150 mM NaCl, 1.0% TritonX-100, 0.5% sodium deoxycholate, 0.1% SDS) supplemented with 10 mg of pre-made protease inhibitor cocktails (Roche, Mississauga, ON, Canada). After that, the proteins were quantified using the Bradford assay (Sigma, St. Louis, MO, USA). Then, membranes were blocked by blocking buffer for an hour. At the same time, the proteins were prepared with the addition of 1 mL Lysis Buffer 17 to the protein lysate. The prepared protein was loaded onto the membrane and was incubated at 4 °C overnight. The following day, the membranes were washed three times with 20 mL of wash buffer provided in the kit. Next, the membrane was transferred into a 4-well multi-dish that contains the reconstituted detection antibody cocktails, and it was incubated for an hour on a shaker. Then, the membrane was again washed with a washing buffer three times. Two millilitres of Streptavidin-HRP was added onto the membrane followed by incubation for 30 min. Then, the membrane was washed three times. Afterward, the membrane was loaded with 1.0 mL of Chemi Reagent Mix and then the membrane was scanned using ChemiDoc XRS (Bio-Rad, Hercules, CA, USA).

Assay [11] has as its system apoptosis-related proteins in HT29. Briefly: Human apoptosis proteome profiler. Type of assay: cell-based. To be noted: HT29, DMCH (IC50) for 48 h. On the procedure:
as §6

The mark [12] stands for this setting: Splenocyte, 24 h, read-out: IC50.
[13] abbreviates: Splenocyte, 48 h, read-out: IC50.
[14] abbreviates: Splenocyte, 72 h, read-out: IC50.

`COc1cccc(/C=C2\CCC/C(=C\c3cccc(OC)c3OC)C2=O)c1OC` [DMCH, (2E,6E)-2,6-bis(2,3-dimethoxybenzylidene) cyclohexanone]: the “proportion of cells that exhibited early apoptosis and late apoptosis” value in [1] and in assay [2] was “significantly higher” in each case. Besides, the IC50 in assay [3] (setting [12]) is greater than 30 µM; in assay [3] (setting [13]), greater than 30 µM; in assay [3] (setting [14]) it was greater than 30 µM; in assay [3] (24 h) it was “no IC50 values observed”; in assay [3] (48 h), “no IC50 values observed”; in [3] (72 h), “no IC50 values observed”. For the same compound, the IC50 in [4] (HT29, 24 h, read-out: IC50) is greater than 30 µM; in assay [4] (HT29, 48 h, read-out: IC50), 9.8 ± 0.553 µM; in assay [4] (HT29, 72 h, read-out: IC50), 8.2 ± 0.761 µM; in assay [4] (HT29, as printed in abstract, time not stated, read-out: inhibitory concentration (IC50)), 9.8 ± 0.55 µg/mL; in [5] (SW620, 24 h, read-out: IC50) it was greater than 30 µM; in [5] (SW620, 48 h, read-out: IC50), 7.5 ± 1.19 µM. Besides, the IC50 is 5 ± 0.157 µM in assay [5] (SW620, 72 h, read-out: IC50) and 7.5 ± 1.19 µg/mL in assay [5] (SW620, as printed in abstract, time not stated, read-out: inhibitory concentration (IC50)). For the same compound, the “cells in sub-G0/G1 phase” value is 10.96± 0.94% in assay [6]; 0.15 ± 0.05% in assay [7] (SW620, 48 h); 73.24 ± 1.65% in assay [7] (SW620, 72 h). Besides, the “early and late apoptotic/necrotic cells” value in assay [8] is on record as 8.83 ± 0.42%; in [9] it was 15.70 ± 1.03%. In addition, the “Bad Regulation” value in [10] and in assay [11] was “Up” throughout. Moreover, the “Bax Regulation” value in assay [10] and in assay [11] was “Up” each time. Moreover, the “Bcl x Regulation” value is given as “Up” in assay [10] and “Down” in assay [11]. The “Cytochrome c Regulation” value was “Down” in assay [10] and “Up” in assay [11]. For the same compound, the “Livin Regulation” value in assay [10] and in assay [11] was “Down” each time. For the same compound, the “Pro caspase 3 Regulation” value in assay [10] is listed as “Down”; in assay [11], “Up”. In addition, the results for the “SMAC/Diablo Regulation” value in assay [10] and in assay [11] were “Down” and “Up”, respectively. In assay [10] (vs control), the “Cytochrome c Relative Intensity (Fold Change)” value is −0.900 ± 0.006. Further, the “Livin Relative Intensity (Fold Change)” value in assay [10] (vs control) is reported as −0.900 ± 0.040. For the same compound, in [10] (vs control), the “SMAC/Diablo Relative Intensity (Fold Change)” value is −0.900 ± 0.070.

Regarding `COc1cc(/C=C/C(=O)CC(=O)/C=C/c2ccc(O)c(OC)c2)ccc1O` [curcumin], the IC50 is greater than 30 µM in assay [3] (setting [12]); greater than 30 µM in [3] (setting [13]); greater than 30 µM in assay [3] (setting [14]); greater than 30 µM in assay [4] (HT29, 24 h, read-out: IC50); 26.7 ± 1.53 µM in assay [4] (HT29, 48 h, read-out: IC50); 20.7 ± 1.16 µM in assay [4] (HT29, 72 h, read-out: IC50). In addition, the IC50 is greater than 30 µM in assay [5] (SW620, 24 h, read-out: IC50); 18.6 ± 0.321 µM in assay [5] (SW620, 48 h, read-out: IC50); 15.7 ± 1.52 µM in [5] (SW620, 72 h, read-out: IC50).
